# Experimental data from patent EP4768499A1, “MACROCYCLIC PEPTIDE COMPOUND HAVING CELL MEMBRANE PERMEABILITY AND METABOLIC STABILITY, AND LIBRARY CONTAINING SAME” (Chugai Seiyaku Kabushiki Kaisha, priority 2023, dated 2025).
# Where two headings read alike, the source gives them in different places. Starred links: 1 amine or outer side, 2 acyl side, 3 side chain; linkers in the order of their positions; H or OH if unused. Non-standard residues stand in square brackets, D forms with d. Residues, ends and D or L forms follow the SMILES beside them. *: point of attachment. NMedβ3hAla = C[C@H](CC(=O)[*:2])N(C)[*:1]; NMeF = CN[C@@H](Cc1ccccc1)C(=O)O; NMeGABA = CN(CCCC(=O)[*:2])[*:1]; NMeI = CC[C@H](C)[C@H](NC)C(=O)O; NMeT = CN[C@H](C(=O)O)[C@@H](C)O; hPhe = N[C@@H](CCc1ccccc1)C(=O)O; NMeβAla = CN(CCC(=O)[*:2])[*:1]; NMeL = CN[C@@H](CC(C)C)C(=O)O; NMeV = CN[C@H](C(=O)O)C(C)C; d(β3hA) = C[C@@H](N)CC(=O)O; NMeAbu = CC[C@H](NC)C(=O)O; NMeA = CN[C@@H](C)C(=O)O; dNMeA = CN[C@H](C)C(=O)O; Abu = CC[C@H](N)C(=O)O; βAla = NCCC(=O)O; Sar = CNCC(=O)O; tBu = CC(C)(C)*
# Assays:
# [1] = tested on: Caco-2 cells; assay: Membrane permeability test using Caco-2 cells with preincubation; format: in vitro ADME
# [2] = as above; format: in vitro ADME; conditions: Caco-2
# [3] = Metabolic stability test: liver microsomal stability assay; format: in vitro ADME, mouse; conditions: for microsomal CLint at 1 µM: male, pH 7.4, presence of NADPH, read-out: Mouse Hepatic Microsome CLh,int NADPH(+)
# [4] = Caco-2 cells, preincubation 20 to 24 hours, apical FaSSIF/HBSS 1% DMSO pH 6.0, basal HBSS 4% BSA pH 7.4, basal sample at 180 minutes
# [5] = preincubation 20 to 24 hours, Apical FaSSIF/HBSS pH 6.0, Basal HBSS 4% BSA pH 7.4, 180 minutes, read-out: Caco2 Papp
# [6] = mouse liver microsomes 0.5 mg protein/mL, compound 1 µM
# [7] = mouse liver microsomes 0.5 mg protein/mL, compound 1 µM, absence of NADPH
SMILES,"Caco2 Papp (10^-6 cm/sec) [1, 4]","Papp A→B [2, 5] [×10⁻⁶ cm/s]","microsomal CLint at 1 µM [3, 6] [µL/min/mg]","Mouse Hepatic Microsome CLh,int NADPH(-) [3, 7] [µL/min/mg Protein]",Caco2 Papp (10^-6 cm/sec) ([1]; Caco-2),Papp A→B [2] [×10⁻⁶ cm/s],"Mouse Hepatic Microsome CLh,int NADPH(-) [3] [µL/min/mg Protein]"
CC[C@H](C)[C@@H]1NC(=O)[C@H](C)N(C)C(=O)[C@H]([C@@H](C)O)N(C)C(=O)[C@H](CC(C)C)N(C)C(=O)[C@H]([C@@H](C)CC)NC(=O)[C@H](Cc2ccccc2)N(C)C(=O)[C@H](Cc2ccccc2)N(C)C(=O)[C@H](C)NC(=O)[C@H](COC(C)(C)C)NC(=O)[C@H](CC)N(C)C(=O)[C@H](C(C)C)NC(=O)CCCN(C)C(=O)C[C@@H](C)NC(=O)[C@H](C(C)C)N(C)C1=O [pd050] (cyclo(A[NMeF][NMeF]I[NMeL][NMeT][NMeA]I[NMeV][d(β3hA)][NMeGABA]V[NMeAbu]S(tBu))),0.54 10^-6 cm/sec,0.54,13.2,15.9,,,
CC[C@H](C)[C@H]1C(=O)N[C@@H]([C@@H](C)O)C(=O)N(C)CC(=O)N(C)[C@@H](CC(C)C)C(=O)N[C@@H](CC(C)C)C(=O)N[C@H](C)CC(=O)N(C)[C@@H](C)C(=O)N[C@@H](CC(C)C)C(=O)N(C)[C@@H](C)C(=O)N(C)[C@@H](CC(C)C)C(=O)N[C@@H](COC(C)(C)C)C(=O)N(C)[C@@H](Cc2ccccc2)C(=O)N[C@@H](C(C)C)C(=O)N(C)[C@@H](CC(C)C)C(=O)N1C [pd052] (cyclo(L[NMeA][NMeL]S(tBu)[NMeF]V[NMeL][NMeI]T[Sar][NMeL]L[d(β3hA)][NMeA])),1.01 10^-6 cm/sec,1.01,28,32.0,,,
CC[C@@H]1NC(=O)[C@H](CC(C)C)N(C)C(=O)[C@H]([C@@H](C)CC)NC(=O)[C@H](CC(C)C)N(C)C(=O)C[C@@H](C)NC(=O)[C@H](C(C)C)N(C)C(=O)[C@H](CC(C)C)NC(=O)[C@H](CC)N(C)C(=O)[C@H](Cc2ccccc2)N(C)C(=O)[C@@H]2CCCN2C(=O)[C@H](CC(C)C)NC(=O)[C@H]([C@@H](C)O)N(C)C(=O)[C@H](C)NC(=O)[C@H](CC(C)C)N(C)C1=O [pd053] (cyclo(A[NMeT]LP[NMeF][NMeAbu]L[NMeV][d(β3hA)][NMeL]I[NMeL][Abu][NMeL])),1.64 10^-6 cm/sec,1.64,45.7,24.1,,,
CC[C@H](C)[C@@H]1NC(=O)[C@@H]2CCCN2C(=O)[C@H](C(C)C)N(C)C(=O)[C@H](CC(C)C)NC(=O)[C@@H](C)N(C)C(=O)C[C@@H](C)NC(=O)[C@H](C(C)C)N(C)C(=O)[C@H](Cc2ccccc2)N(C)C(=O)[C@H](COC(C)(C)C)NC(=O)[C@H](CC(C)C)N(C)C(=O)[C@H](C)N(C)C(=O)[C@H](CC(C)C)N(C)C(=O)[C@H]([C@@H](C)O)NC(=O)[C@H](Cc2ccccc2)N(C)C1=O [pd054] (cyclo(I[NMeF]T[NMeL][NMeA][NMeL]S(tBu)[NMeF][NMeV][d(β3hA)][dNMeA]L[NMeV]P)),0.49 10^-6 cm/sec,0.49,32.5,25.1,,,
CC[C@@H]1NC(=O)[C@H](C)N(C)C(=O)[C@H](C(C)C)N(C)C(=O)[C@H]([C@@H](C)CC)NC(=O)[C@H](C)N(C)C(=O)CCCN(C)C(=O)C[C@@H](C)NC(=O)[C@H](C(C)C)N(C)C(=O)[C@H](CCc2ccccc2)NC(=O)CCN(C)C(=O)[C@H]([C@@H](C)O)N(C)C(=O)[C@H](CC(C)C)N(C)C(=O)[C@H]([C@@H](C)CC)NC(=O)[C@H](Cc2ccccc2)N(C)C1=O [pd055] (cyclo([Abu][NMeF]I[NMeL][NMeT][NMeβAla][hPhe][NMeV][d(β3hA)][NMeGABA][NMeA]I[NMeV][NMeA])),0.12 10^-6 cm/sec,0.12,27.1,15.0,,,
CC[C@H](C)[C@@H]1NC(=O)[C@H](CC(C)C)N(C)C(=O)[C@H](CC(C)C)NC(=O)[C@H](C)N(C)C(=O)[C@H](Cc2ccccc2)N(C)C(=O)[C@@H]2CCCN2C(=O)[C@H](CC(C)C)N(C)C(=O)[C@H](CCc2ccccc2)NC(=O)CCN(C)C(=O)C[C@@H](C)NC(=O)[C@H](CC(C)C)N(C)C(=O)[C@H]([C@@H](C)O)NC(=O)[C@H](C)N(C)C(=O)[C@H](C(C)C)N(C)C1=O [pd056] (cyclo(I[NMeV][NMeA]T[NMeL][d(β3hA)][NMeβAla][hPhe][NMeL]P[NMeF][NMeA]L[NMeL])),0.27 10^-6 cm/sec,0.27,55.9,30.2,,,
CC[C@H]1C(=O)N[C@@H](COC(C)(C)C)C(=O)N(C)[C@@H](Cc2ccccc2)C(=O)N(C)[C@@H](C(C)C)C(=O)N[C@H](C)CC(=O)N(C)[C@H](C)C(=O)N(C)[C@@H](CC(C)C)C(=O)N(C)[C@@H](C(C)C)C(=O)N2CCC[C@H]2C(=O)N[C@@H](C(C)C)C(=O)N(C)[C@@H](Cc2ccccc2)C(=O)N[C@@H]([C@@H](C)O)C(=O)N(C)[C@@H](CC(C)C)C(=O)N(C)[C@@H](C)C(=O)N1C [pd058] (cyclo([NMeA][NMeAbu]S(tBu)[NMeF][NMeV][d(β3hA)][dNMeA][NMeL][NMeV]PV[NMeF]T[NMeL])),0.72 10^-6 cm/sec,0.72,16.3,14.8,,,
CC[C@H](C)[C@@H]1NC(=O)[C@H](C)N(C)C(=O)CCCN(C)C(=O)C[C@@H](C)NC(=O)[C@H](C(C)C)N(C)C(=O)[C@H](CC(C)C)N(C)C(=O)[C@H](C)N(C)C(=O)[C@H]([C@@H](C)O)N(C)C(=O)[C@H](CCc2ccccc2)NC(=O)[C@H](C(C)C)NC(=O)[C@H](Cc2ccccc2)N(C)C(=O)[C@H](CC)N(C)C(=O)[C@H](C)N(C)C(=O)[C@H](C(C)C)N(C)C1=O [pd059] (cyclo(I[NMeV][NMeA][NMeAbu][NMeF]V[hPhe][NMeT][NMeA][NMeL][NMeV][d(β3hA)][NMeGABA][NMeA])),0.52 10^-6 cm/sec,0.52,12.7,18.6,,,
CC[C@H](C)[C@@H]1NC(=O)[C@H](CC(C)C)N(C)C(=O)C[C@@H](C)NC(=O)[C@H](C(C)C)N(C)C(=O)[C@H](COC(C)(C)C)NC(=O)[C@H](CC)N(C)C(=O)[C@H](Cc2ccccc2)N(C)C(=O)[C@H](CC(C)C)NC(=O)[C@@H]2CCCN2C(=O)[C@H]([C@@H](C)O)N(C)C(=O)[C@H](CC(C)C)N(C)C(=O)[C@H](CC)N(C)C(=O)[C@H](C(C)C)N(C)C(=O)[C@H](CC(C)C)N(C)C1=O [pd061] (cyclo(I[NMeL][NMeV][NMeAbu][NMeL][NMeT]PL[NMeF][NMeAbu]S(tBu)[NMeV][d(β3hA)][NMeL])),0.51 10^-6 cm/sec,0.51,39,39.7,,,
CC[C@@H]1NC(=O)[C@H](CC(C)C)N(C)C(=O)CCNC(=O)[C@H](Cc2ccccc2)N(C)C(=O)[C@H](Cc2ccccc2)N(C)C(=O)CNC(=O)[C@H]([C@@H](C)CC)NC(=O)[C@H](CC(C)C)N(C)C(=O)CCCN(C)C(=O)C[C@@H](C)N(C)C(=O)[C@H](CC(C)C)NC(=O)[C@H]([C@@H](C)CC)NC(=O)[C@H](C)N(C)C(=O)[C@H](C(C)C)NC1=O [pd062] (cyclo([Abu]V[NMeA]IL[NMedβ3hAla][NMeGABA][NMeL]IG[NMeF][NMeF][βAla][NMeL])),,,,,<0.11 10^-6 cm/sec,< 0.11,24.1
CC[C@@H]1NC(=O)[C@H](CC(C)C)N(C)C(=O)[C@H](COC(C)(C)C)NC(=O)[C@H]([C@@H](C)CC)NC(=O)[C@H](Cc2ccccc2)N(C)C(=O)CNC(=O)[C@H]([C@@H](C)CC)NC(=O)[C@H](CC(C)C)N(C)C(=O)CCCN(C)C(=O)C[C@@H](C)N(C)C(=O)[C@H](CC(C)C)NC(=O)[C@H](C)N(C)C(=O)[C@H](Cc2ccccc2)N(C)C(=O)[C@H](C(C)C)NC1=O [pd063] (cyclo([Abu]V[NMeF][NMeA]L[NMedβ3hAla][NMeGABA][NMeL]IG[NMeF]IS(tBu)[NMeL])),0.03 10^-6 cm/sec,0.03,47.5,33.7,,,
CC[C@@H]1NC(=O)[C@H](C(C)C)NC(=O)[C@H]([C@@H](C)CC)N(C)C(=O)[C@H](CCc2ccccc2)NC(=O)[C@H](Cc2ccccc2)N(C)C(=O)[C@H]([C@@H](C)CC)NC(=O)[C@H](CC(C)C)N(C)C(=O)[C@H](CC(C)C)NC(=O)CCN(C)C(=O)C[C@@H](C)N(C)C(=O)[C@H](CC(C)C)N(C)C(=O)CNC(=O)[C@@H]2CCCN2C(=O)[C@H](CC(C)C)N(C)C1=O [pd064] (cyclo([Abu][NMeL]PG[NMeL][NMedβ3hAla][NMeβAla]L[NMeL]I[NMeF][hPhe][NMeI]V)),0.04 10^-6 cm/sec,0.04,41.4,43.3,,,
